# Assays:
# Assay in all cases: relative viability (nuclei count vs DMSO), 5 days (fraction); higher = more cells survive
# NCI-H2228 = tested on: NCI-H2228
# Outline: (§1)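 Lung cancer cell lines in 1536-well plates got either a single drug or a fixed anchor-drug dose together with five library-drug doses (not always all listed) in √10 steps, by pin tool, on the day after seeding. Nuclei were counted after 5 days, and relative viability is the treated-to-vehicle ratio of nuclei counts. Values are medians of duplicate plates.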
# NCI-H650 = tested on: NCI-H650
# Outline: as §1
# NCI-H1734 = tested on: NCI-H1734
# Outline: as §1
# PC-3 [JPC-3] = tested on: PC-3 [JPC-3]
# Outline: as §1
# RERF-LC-KJ = tested on: RERF-LC-KJ
# Outline: as §1
# NCI-H1792 = tested on: NCI-H1792
# Outline: as §1
# EPLC-272H = tested on: EPLC-272H
# Outline: as §1
# 201T = tested on: 201T
# Outline: as §1
# LCLC-97TM1 = tested on: LCLC-97TM1
# Outline: as §1
# NCI-H661 = tested on: NCI-H661
# Outline: as §1
# NCI-H1915 = tested on: NCI-H1915
# Outline: as §1
# SK-MES-1 = tested on: SK-MES-1
# Outline: as §1
# NCI-H1355 = tested on: NCI-H1355
# Outline: as §1
# LCLC-103H = tested on: LCLC-103H
# Outline: as §1
# NCI-H1651 = tested on: NCI-H1651
# Outline: as §1
# NCI-H460 = tested on: NCI-H460
# Outline: as §1
# HCC-78 = tested on: HCC-78
# Outline: as §1
# SW 1573 = tested on: SW 1573
# Outline: as §1
# NCI-H596 = tested on: NCI-H596
# Outline: as §1
# LOU-NH91 = tested on: LOU-NH91
# Outline: as §1
# NCI-H1993 = tested on: NCI-H1993
# Outline: as §1
# NCI-H1793 = tested on: NCI-H1793
# Outline: as §1
structure (smiles),measurement,setting,value
C=C1C(=O)O[C@@H](CCCCCCCC)[C@@H]1C(=O)O [C-75] + Nc1nc2[nH]cc(CCc3ccc(C(=O)N[C@@H](CCC(=O)O)C(=O)O)cc3)c2c(=O)[nH]1 [Pemetrexed] (partner 0.2 µM),relative viability,NCI-H2228; first compound 0.08 µM,0.33
same,relative viability,NCI-H2228; first compound 0.253 µM,0.332
same,relative viability,NCI-H2228; first compound 0.8 µM,0.29
same,relative viability,NCI-H2228; first compound 2.53 µM,0.333
same,relative viability,NCI-H2228; first compound 8 µM,0.318
same,relative viability,NCI-H650; first compound 0.08 µM,1.28
same,relative viability,NCI-H650; first compound 0.253 µM,0.888
same,relative viability,NCI-H650; first compound 0.8 µM,0.857
same,relative viability,NCI-H650; first compound 2.53 µM,0.823
same,relative viability,NCI-H650; first compound 8 µM,0.882
same,relative viability,NCI-H1734; first compound 0.08 µM,0.382
same,relative viability,NCI-H1734; first compound 0.253 µM,0.396
same,relative viability,NCI-H1734; first compound 0.8 µM,0.41
same,relative viability,NCI-H1734; first compound 2.53 µM,0.359
same,relative viability,NCI-H1734; first compound 8 µM,0.361
same,relative viability,PC-3 [JPC-3]; first compound 0.08 µM,1.07
same,relative viability,PC-3 [JPC-3]; first compound 0.253 µM,0.979
same,relative viability,PC-3 [JPC-3]; first compound 0.8 µM,0.81
same,relative viability,PC-3 [JPC-3]; first compound 2.53 µM,0.874
same,relative viability,PC-3 [JPC-3]; first compound 8 µM,1.14
same,relative viability,RERF-LC-KJ; first compound 0.08 µM,0.456
same,relative viability,RERF-LC-KJ; first compound 0.253 µM,0.487
same,relative viability,RERF-LC-KJ; first compound 0.8 µM,0.469
same,relative viability,RERF-LC-KJ; first compound 2.53 µM,0.46
same,relative viability,RERF-LC-KJ; first compound 8 µM,0.461
same,relative viability,NCI-H1792; first compound 0.08 µM,0.816
same,relative viability,NCI-H1792; first compound 0.253 µM,0.92
same,relative viability,NCI-H1792; first compound 0.8 µM,0.882
same,relative viability,NCI-H1792; first compound 2.53 µM,0.481
same,relative viability,NCI-H1792; first compound 8 µM,0.678
same,relative viability,EPLC-272H; first compound 0.08 µM,0.313
same,relative viability,EPLC-272H; first compound 0.253 µM,0.267
same,relative viability,EPLC-272H; first compound 0.8 µM,0.329
same,relative viability,EPLC-272H; first compound 2.53 µM,0.202
same,relative viability,EPLC-272H; first compound 8 µM,0.24
same,relative viability,201T; first compound 0.08 µM,0.337
same,relative viability,201T; first compound 0.253 µM,0.323
same,relative viability,201T; first compound 0.8 µM,0.296
same,relative viability,201T; first compound 2.53 µM,0.311
same,relative viability,201T; first compound 8 µM,0.308
same,relative viability,LCLC-97TM1; first compound 0.08 µM,0.197
same,relative viability,LCLC-97TM1; first compound 0.253 µM,0.195
same,relative viability,LCLC-97TM1; first compound 0.8 µM,0.177
same,relative viability,LCLC-97TM1; first compound 2.53 µM,0.129
same,relative viability,LCLC-97TM1; first compound 8 µM,0.145
same,relative viability,NCI-H661; first compound 0.08 µM,0.919
same,relative viability,NCI-H661; first compound 0.253 µM,0.925
same,relative viability,NCI-H661; first compound 0.8 µM,0.856
same,relative viability,NCI-H661; first compound 2.53 µM,0.783
same,relative viability,NCI-H661; first compound 8 µM,0.881
same,relative viability,NCI-H1915; first compound 0.08 µM,0.471
same,relative viability,NCI-H1915; first compound 0.253 µM,0.475
same,relative viability,NCI-H1915; first compound 0.8 µM,0.483
same,relative viability,NCI-H1915; first compound 2.53 µM,0.448
same,relative viability,NCI-H1915; first compound 8 µM,0.527
same,relative viability,SK-MES-1; first compound 0.08 µM,0.97
same,relative viability,SK-MES-1; first compound 0.253 µM,0.911
same,relative viability,SK-MES-1; first compound 0.8 µM,0.839
same,relative viability,SK-MES-1; first compound 2.53 µM,0.766
same,relative viability,SK-MES-1; first compound 8 µM,0.919
same,relative viability,NCI-H1355; first compound 0.08 µM,1.01
same,relative viability,NCI-H1355; first compound 0.253 µM,1.04
same,relative viability,NCI-H1355; first compound 0.8 µM,1.05
same,relative viability,NCI-H1355; first compound 2.53 µM,1.02
same,relative viability,NCI-H1355; first compound 8 µM,0.974
same,relative viability,LCLC-103H; first compound 0.08 µM,0.464
same,relative viability,LCLC-103H; first compound 0.253 µM,0.428
same,relative viability,LCLC-103H; first compound 0.8 µM,0.458
same,relative viability,LCLC-103H; first compound 2.53 µM,0.326
same,relative viability,LCLC-103H; first compound 8 µM,0.433
same,relative viability,NCI-H1651; first compound 0.08 µM,0.568
same,relative viability,NCI-H1651; first compound 0.253 µM,0.671
same,relative viability,NCI-H1651; first compound 0.8 µM,0.541
same,relative viability,NCI-H1651; first compound 2.53 µM,0.53
same,relative viability,NCI-H1651; first compound 8 µM,0.606
same,relative viability,NCI-H460; first compound 0.08 µM,0.0548
same,relative viability,NCI-H460; first compound 0.253 µM,0.0554
same,relative viability,NCI-H460; first compound 0.8 µM,0.0669
same,relative viability,NCI-H460; first compound 2.53 µM,0.0313
same,relative viability,NCI-H460; first compound 8 µM,0.0571
same,relative viability,HCC-78; first compound 0.08 µM,0.829
same,relative viability,HCC-78; first compound 0.253 µM,0.902
same,relative viability,HCC-78; first compound 0.8 µM,0.839
same,relative viability,HCC-78; first compound 8 µM,0.893
same,relative viability,SW 1573; first compound 0.08 µM,0.947
same,relative viability,SW 1573; first compound 0.253 µM,0.874
same,relative viability,SW 1573; first compound 0.8 µM,0.728
same,relative viability,SW 1573; first compound 2.53 µM,0.684
same,relative viability,SW 1573; first compound 8 µM,0.706
same,relative viability,NCI-H596; first compound 0.08 µM,0.503
same,relative viability,NCI-H596; first compound 0.253 µM,0.432
same,relative viability,NCI-H596; first compound 0.8 µM,0.461
same,relative viability,NCI-H596; first compound 2.53 µM,0.47
same,relative viability,NCI-H596; first compound 8 µM,0.481
same,relative viability,LOU-NH91; first compound 0.08 µM,0.308
same,relative viability,LOU-NH91; first compound 0.253 µM,0.362
same,relative viability,LOU-NH91; first compound 0.8 µM,0.386
same,relative viability,LOU-NH91; first compound 8 µM,0.378
same,relative viability,NCI-H1993; first compound 0.08 µM,0.564
same,relative viability,NCI-H1993; first compound 0.253 µM,0.716
same,relative viability,NCI-H1993; first compound 0.8 µM,0.541
same,relative viability,NCI-H1993; first compound 2.53 µM,0.652
same,relative viability,NCI-H1993; first compound 8 µM,0.478
same,relative viability,NCI-H1793; first compound 0.08 µM,0.702
same,relative viability,NCI-H1793; first compound 0.253 µM,0.954
same,relative viability,NCI-H1793; first compound 2.53 µM,0.59
same,relative viability,NCI-H1793; first compound 8 µM,0.958
